Results as given in patent US5270302A, “Derivatives of tetrapeptides as CCK agonists” (priority 1991, dated 1993).
Where two headings read alike, the source gives them in different places. *1 amine or outer side, *2 acyl side, *3 side chain or, on linkers, in order; H or OH if unused. Where a SMILES comes first, the peptide text is derived from it. Side-chain parts run from the residue outwards. [ ]: non-standard residue; d: D form. The star is where a group is joined. 2Naphthoyl(6-OH) = O=C(c1ccc2cc(O)ccc2c1)*; 1Nal = N[C@@H](Cc1cccc2ccccc12)C(=O)O; Desaminotyrosyl = O=C(CCc1ccc(O)cc1)*; NH(1-naphthyl) = c1ccc2c(N*)cccc2c1; X12 = O=C(C=Cc1ccc(C(F)(F)F)cc1)*; NMeF = CN[C@@H](Cc1ccccc1)C(=O)O; NMeD = CN[C@@H](CC(=O)O)C(=O)O; NH(2-Me-phenyl) = Cc1ccccc1N*; X9 = CN(C)c1ccc(C=CC(=O)*)cc1; 3Abz = Nc1cccc(C(=O)O)c1; X17 = O=C(C=Cc1ccccc1O)*; 2Abz = Nc1ccccc1C(=O)O; X26 = Clc1cccc(Cl)c1N*; Boc = CC(C)(C)OC(=O)*; X24 = CC(C)c1ccccc1N*; CO = O=C([*:1])[*:2]; NHPh = c1ccc(N*)cc1; NHtBu = CC(C)(C)N*; X16 = COc1ccccc1N*

How the values were obtained:
Type-A CCK receptor = molecular target: T1, Type-A CCK receptor (Cavia porcellus, UniProt Q63931); test: Radioligand binding of [125I]BH-CCK-8 in guinea pig pancreatic membrane preparations
T1 construct: Cortical and pancreatic membranes were prepared as described; from tissue; host or cells: guinea pig pancreas membranes
T1 sequence (Q63931 1-430): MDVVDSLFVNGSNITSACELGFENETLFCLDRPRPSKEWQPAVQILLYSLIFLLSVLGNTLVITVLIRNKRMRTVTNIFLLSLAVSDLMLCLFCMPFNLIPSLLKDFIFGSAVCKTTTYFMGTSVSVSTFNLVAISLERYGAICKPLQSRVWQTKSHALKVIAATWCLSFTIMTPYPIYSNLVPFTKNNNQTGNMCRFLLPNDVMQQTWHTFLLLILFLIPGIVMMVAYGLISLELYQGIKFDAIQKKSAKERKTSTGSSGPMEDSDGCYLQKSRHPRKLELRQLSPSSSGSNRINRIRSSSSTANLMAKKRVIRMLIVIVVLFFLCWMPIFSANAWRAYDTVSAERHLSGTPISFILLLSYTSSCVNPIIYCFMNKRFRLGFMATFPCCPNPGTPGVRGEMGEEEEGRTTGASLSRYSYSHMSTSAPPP
Description: (§1) CCK-8 [Asp-Tyr(SO3 H)-Met-Gly-Trp-Met-Asp-PheNH2 ], bestatin and phosphoramidion were purchased from Peptide International (Louisville, Ky.). EGTA (ethylene glycol-bis-(β-aminoethyl) N,N,N',N'-tetraacetic acid), HEPES (4-(2-hydroxyethyl)-1-piperazine-enthanesulfonic acid) and BSA (bovine serum albumin) were purchased from Sigma Chemical Co. (St. Louis, Mo.). [^125 I]-Bolton-Hunteer (BH-CCK-8) (specific activity, 2200 Ci/mmol) was obtained from New England Nuclear (Boston, Mass.). Male guinea pigs, 250 to 325 g, were obtained from Scientific Small Animal Laboratory and Farm (Arlington Heights, Ill.). Collagenase, code CLSPA was purchased from Worthington (Frehold, N.J.).
(§2) Protocol For Radioligand Binding Experiments in Guinea Pig Cerebral Cortical and Pancreatic Membrane Preparations
(§3) Cortical and pancreatic membranes were prepared as described (Lin and Miller; J. Pharmacol. Exp. Ther. 1985, 232:775-780,). In brief, cortex and pancreas were removed and rinsed with ice-cold saline. Visible fat and connective tissues were removed from the pancreas. […] The homogenates were entrifuged for 10 minutes at 1075×g and pellets were discarded. The supernatants were saved and centrifuged at 38,730×g for 20 minutes. The resultant pellets were rehomogenized in 25 mL of 50 mM Tris-HCl buffer with a Teflon-glass homogenizer, 5 up and down strokes. The homogenates were centrifuged again at 38,730×g for 20 minutes. Pellets werre then resuspended in 20 mM HEPES, containing 1 mM EGTA, 118 mM NaCl, 4.7 mM KCl, 5 mM MgCl2, 100 μM bestatin, 3 μM phosphoramidon, pH 7.4 at 22° C. with a Teflon-glass homogenizer, 15 up and down strokes. Resuspension volume for the cortex was 15-18 mL per gram of original wet weight and 60 mL per gram for the pancreas.
(§4) [^125 I]Bolton-Hunter CCK-8 and test compounds were diluted with HEPES-EGTA-salt buffer (see above) containing 0.5% BSA. To 1 mL Skatron polystyrene tubes were added 25 μL of test compounds, 25 μL of [^125 I]BH-CCK-8 and 200 μL of membrane suspension. The final BSA concentration was 0.1%. The cortical tissues were incubated at 30° C. for 150 minutes and pancreatic tissues were incubated at 37° C. for 150 min. Incubations were terminated by filtration using Skatron Cell Harvester and SS32 microfiber filter mats. […] IC50 s were determined from the Hill analysis.

Type-B CCK receptor = molecular target: T2, Type-B CCK receptor (Cavia porcellus, UniProt H0VZC5); test: Radioligand binding of [125I]BH-CCK-8 in guinea pig cerebral cortical membrane preparations
T2 construct: Cortical and pancreatic membranes were prepared as described; from tissue; host or cells: guinea pig cerebral cortex membranes
T2 sequence (H0VZC5 1-426): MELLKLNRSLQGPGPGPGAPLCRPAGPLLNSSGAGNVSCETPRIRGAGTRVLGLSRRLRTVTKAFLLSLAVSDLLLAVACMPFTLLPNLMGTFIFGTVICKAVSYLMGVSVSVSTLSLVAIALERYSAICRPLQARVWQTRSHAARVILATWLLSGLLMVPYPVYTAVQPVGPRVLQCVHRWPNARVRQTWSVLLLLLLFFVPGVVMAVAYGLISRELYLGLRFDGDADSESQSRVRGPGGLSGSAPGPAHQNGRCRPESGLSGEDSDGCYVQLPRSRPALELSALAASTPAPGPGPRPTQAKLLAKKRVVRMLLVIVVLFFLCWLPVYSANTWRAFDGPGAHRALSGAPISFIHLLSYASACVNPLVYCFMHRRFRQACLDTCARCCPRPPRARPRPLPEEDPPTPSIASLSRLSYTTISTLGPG
Description: as §1, §2, §3, §4

[1] = IC50 (nM) 125I-BH-CCK-8 Type-A receptor, guinea pig pancreatic membranes, 37° C., 150 min
[2] = IC50 (nM) 125I-BH-CCK-8 Type-B receptor, guinea pig cortical membranes, 30° C., 150 minutes
[3] = guinea pig pancreatic membranes, 37° C., 150 min, read-out: IC50 (nM) 125I-BH-CCK-8 Type-A receptor
[4] = guinea pig cortical membranes, 30° C., 150 minutes, read-out: IC50 (nM) 125I-BH-CCK-8 Type-B receptor

Structure (SMILES): Cc1ccccc1NC(=O)NCCCC[C@H](NC(=O)C(C)(N)Cc1c[nH]c2ccccc12)C(=O)N[C@@H](CC(=O)O)C(=O)N(C)[C@@H](Cc1ccccc1)C(N)=O (single isomer, unassigned; isomer a) [Example 98, (α-Methyl)Trp-Lys(ε-N-(2-methylphenyl)aminocarbonyl)-Asp-(NMe)PheNH2 (Isomer A)]
- IC50 (Type-A CCK receptor; [1]): 4.9 nM
- IC50 (Type-B CCK receptor; [2]): 3200 nM

Structure (SMILES): Cc1ccccc1NC(=O)NCCCC[C@H](NC(=O)C(C)(N)Cc1c[nH]c2ccccc12)C(=O)N[C@@H](CC(=O)O)C(=O)N(C)[C@@H](Cc1ccccc1)C(N)=O (single isomer, unassigned; isomer b) [Example 99, (α-Methyl)Trp-Lys(ε-N-(2-methylphenyl)aminocarbonyl)-Asp-(NMe)PheNH2 (Isomer B)]
- IC50 (Type-A CCK receptor; [1]): 67 nM
- IC50 (Type-B CCK receptor; [2]): > 10000 nM

Structure (SMILES): CC(C)(C)OC(=O)N[C@@H](Cc1c[nH]c2ccccc12)C(=O)N[C@@H](CCCCNC(=O)C=Cc1ccc(C(F)(F)F)cc1)C(=O)N[C@@H](CC(=O)O)C(=O)N[C@@H](Cc1ccccc1)C(N)=O [Example 8, t-BOC-Trp-Lys(ε-N-(4-trifluoromethylcinnamoyl))-Asp-PheNH2] (Boc-WK(X12)DF-NH2)
- IC50 (Type-A CCK receptor; [3]): 200 nM
- IC50 (Type-B CCK receptor; [4]): 5300 nM

Structure (SMILES): CN(C)c1ccc(C=CC(=O)NCCCC[C@H](NC(=O)[C@H](Cc2c[nH]c3ccccc23)NC(=O)OC(C)(C)C)C(=O)N[C@@H](CC(=O)O)C(=O)N[C@@H](Cc2ccccc2)C(N)=O)cc1 [Example 13, t-BOC-Trp-Lys(ε-N-(4-(dimethylamino)cinnamoyl))-Asp-PheNH2] (Boc-WK(X9)DF-NH2)
- IC50 (Type-A CCK receptor; [3]): 120 nM
- IC50 (Type-B CCK receptor; [4]): 2100 nM

Structure (SMILES): CN(C(=O)[C@H](CC(=O)O)NC(=O)[C@H](CCCCNC(=O)c1ccc2cc(O)ccc2c1)NC(=O)[C@H](Cc1c[nH]c2ccccc12)NC(=O)OC(C)(C)C)[C@@H](Cc1ccccc1)C(N)=O [Example 19, t-BOC-Trp-Lys(ε-N-(6-hydroxy-β-naphthoyl))-Asp-(NMe)PheNH2] (Boc-WK(2Naphthoyl(6-OH))D[NMeF]-NH2)
- IC50 (Type-B CCK receptor; [4]): 730 nM

Structure (SMILES): CC(C)(C)OC(=O)N[C@@H](Cc1c[nH]c2ccccc12)C(=O)N[C@@H](CCCCNC(=O)CCc1ccc(O)cc1)C(=O)N[C@@H](CC(=O)O)C(=O)N[C@@H](Cc1cccc2ccccc12)C(N)=O [Example 21, t-BOC-Trp-Lys(ε-N-(3-(4-hydroxyphenyl)propionyl))-Asp-α-NalNH2] (Boc-WK(Desaminotyrosyl)D[1Nal]-NH2)
- IC50 (Type-A CCK receptor; [3]): 33 nM
- IC50 (Type-B CCK receptor; [4]): 1200 nM

Structure (SMILES): CC(C)(C)OC(=O)N[C@@H](Cc1c[nH]c2ccccc12)C(=O)N[C@@H](CCCCNC(=O)C=Cc1ccccc1O)C(=O)N[C@@H](CC(=O)O)C(=O)N[C@@H](Cc1ccccc1)C(N)=O [Example 22, t-BOC-Trp-Lys(ε-N-(2-hydroxycinnamoyl))-Asp-PheNH2] (Boc-WK(X17)DF-NH2)
- IC50 (Type-A CCK receptor; [3]): 81 nM
- IC50 (Type-B CCK receptor; [4]): 200 nM

Structure (SMILES): CC(C)(C)OC(=O)N[C@@H](Cc1c[nH]c2ccccc12)C(=O)N[C@@H](CCCCNC(=O)Nc1cccc2ccccc12)C(=O)N[C@@H](CC(=O)O)C(=O)N[C@@H](Cc1ccccc1)C(N)=O [Example 28, t-BOC-Trp-Lys(ε-N-(α-naphthyl)aminocarbonyl)-Asp-PheNH2] (Boc-WK([CO-NH(1-naphthyl)])DF-NH2)
- IC50 (Type-B CCK receptor): 10000 nM

Structure (SMILES): CC(C)(C)OC(=O)N[C@@H](Cc1c[nH]c2ccccc12)C(=O)N[C@@H](CCCCNC(=O)Nc1ccccc1)C(=O)N[C@@H](CC(=O)O)C(=O)N[C@@H](Cc1ccccc1)C(N)=O [Example 29, t-BOC-Trp-Lys(ε-N-(phenylaminocarbonyl))-Asp-PheNH2] (Boc-WK([CO-NHPh])DF-NH2)
- IC50 (Type-B CCK receptor; [4]): 1100 nM

Structure (SMILES): CC(C)(C)NC(=O)NCCCC[C@H](NC(=O)[C@H](Cc1c[nH]c2ccccc12)NC(=O)OC(C)(C)C)C(=O)N[C@@H](CC(=O)O)C(=O)N[C@@H](Cc1ccccc1)C(N)=O [Example 32, t-BOC-Trp-Lys(ε-N-(t-butylaminocarbonyl))-Asp-PheNH2] (Boc-WK([CO-NHtBu])DF-NH2)
- IC50 (Type-B CCK receptor; [4]): 5600 nM

Structure (SMILES): CC(C)(C)OC(=O)N[C@@H](Cc1c[nH]c2ccccc12)C(=O)N[C@@H](CCCC/N=C(\S)Nc1ccccc1Cl)C(=O)N[C@@H](CC(=O)O)C(=O)N[C@@H](Cc1ccccc1)C(N)=O [Example 37, t-BOC-Trp-Lys(ε-N-(2-chlorophenyl)aminothiocarbonyl)-Asp-PheNH2]
- IC50 (Type-B CCK receptor; [4]): 2900 nM

Structure (SMILES): CC(C)c1ccccc1NC(=O)NCCCC[C@H](NC(=O)[C@H](Cc1c[nH]c2ccccc12)NC(=O)OC(C)(C)C)C(=O)N[C@@H](CC(=O)O)C(=O)N[C@@H](Cc1ccccc1)C(N)=O [Example 41, t-BOC-Trp-Lys(ε-N-(2-isopropylphenyl)aminocarbonyl)-Asp-PheNH2] (Boc-WK([CO-X24])DF-NH2)
- IC50 (Type-B CCK receptor; [4]): 5700 nM

Structure (SMILES): COc1ccccc1NC(=O)NCCCC[C@H](NC(=O)[C@H](Cc1c[nH]c2ccccc12)NC(=O)OC(C)(C)C)C(=O)N[C@@H](CC(=O)O)C(=O)N[C@@H](Cc1ccccc1)C(N)=O [Example 43, t-BOC-Trp-Lys(ε-N-(2-methoxyphenyl)aminocarbonyl)-Asp-PheNH2] (Boc-WK([CO-X16])DF-NH2)
- IC50 (Type-A CCK receptor; [3]): 23 nM

Structure (SMILES): COC(=O)c1ccccc1NC(=O)NCCCC[C@H](NC(=O)[C@H](Cc1c[nH]c2ccccc12)NC(=O)OC(C)(C)C)C(=O)N[C@@H](CC(=O)O)C(=O)N[C@@H](Cc1ccccc1)C(N)=O [Example 45, t-BOC-Trp-Lys(ε-N-(2-(methoxycarbonyl)phenyl)aminocarbonyl)-Asp-PheNH2] (Boc-WK([CO-2Abz-OMe])DF-NH2)
- IC50 (Type-B CCK receptor): 3000 nM

Structure (SMILES): COC(=O)c1cccc(NC(=O)NCCCC[C@H](NC(=O)[C@H](Cc2c[nH]c3ccccc23)NC(=O)OC(C)(C)C)C(=O)N[C@@H](CC(=O)O)C(=O)N[C@@H](Cc2ccccc2)C(N)=O)c1 [Example 46, t-BOC-Trp-Lys(ε-N-(3-(methoxycarbonyl)phenyl)aminocarbonyl)-Asp-PheNH2] (Boc-WK([CO-3Abz-OMe])DF-NH2)
- IC50 (Type-B CCK receptor; [4]): 1400 nM

Structure (SMILES): CC(C)(C)OC(=O)N[C@@H](Cc1c[nH]c2ccccc12)C(=O)N[C@@H](CCCCNC(=O)Nc1c(Cl)cccc1Cl)C(=O)N[C@@H](CC(=O)O)C(=O)N[C@@H](Cc1ccccc1)C(N)=O [Example 47, t-BOC-Trp-Lys(ε-N-(2,6-dichlorophenyl)aminocarbonyl)-Asp-PheNH2] (Boc-WK([CO-X26])DF-NH2)
- IC50 (Type-B CCK receptor; [4]): 7000 nM

Structure (SMILES): Cc1ccccc1NC(=O)NCCCC[C@H](NC(=O)[C@H](Cc1c[nH]c2ccccc12)NC(=O)OC(C)(C)C)C(=O)N(C)[C@@H](CC(=O)O)C(=O)N[C@@H](Cc1ccccc1)C(N)=O [Example 60, t-BOC-Trp-Lys(ε-N-(2-methylphenyl)aminocarbonyl)-(NMe)Asp-PheNH2] (Boc-WK([CO-NH(2-Me-phenyl)])[NMeD]F-NH2)
- IC50 (Type-A CCK receptor): 4.3 nM
